According to patent US10894785B2, “Piperidine derivatives for use in the treatment of pancreatic cancer” (CENTRE HOSPITALIER UNIVERSITAIRE VAUDOIS CHUV, priority 2016, dated 2021):
pIC50: −log10 of the molar value.

Experiments:
[1] = Pharmacokinetics after intraperitoneal administration in female SCID mice (plasma, LC-MS/MS, non compartmental analysis); assay type: in vivo; details: 20 mg/kg IP; for CL: CL calculated as dose/AUC; for Percentage of extrapolated AUC from T6 h to infinity: relative to AUC0-inf; for T1/2α: t½α (0 -> 6 h); for T1/2β: t½β (6 -> 24 h); for Cmax / Tmax / AUC(0-inf) / AUC(0-t): mouse; for AUC(0-inf): log-trapezoidal rule, extrapolated to infinity; for AUC(0-t): read-out: AUC0-8 h
Procedure: The pharmacokinetics parameters of FK866, FE1199, VAL22-2 and MPM07 were determined following intraperitoneal administration (IP) in female SCID mice.
• SCID (Severe Combined ImmunoDeficiency) mice female total 144 • 25 mM in DMSO (dimethylsulfoxyde) of each test drug • Saline solution (0.9%)
Test drugs were dissolved in saline solution at 20 mg/ml. All dosing solutions were controlled by HPLC (High-Performance Liquid Chromatography) analysis. Mouse weight is estimated around 20 g.
Three mice per time point were used in each group.
Blood samples were collected on citrate at 10 min, 30 min, 1 h, 2 h, 4 h, 6 h, 8 h and 24 hours after drug administration. Following centrifugation, resulting plasma was stored at […] pending bioanalysis. Samples were analyzed by LC-MS/MS (Liquid chromatography tandem-mass spectrometry); the lower limit of quantification achieved was between 3 and 12 nM depending on drug. Non compartmental pharmacokinetic analysis was performed on plasma concentration data.

[2] = system: pancreatic ductal adenocarcinoma (Panc-1); experiment: Anti-tumor activity on Panc-1: cell viability by sulforhodamine or MTT assay; assay type: cell-based; details: Homo sapiens, Panc-1 cells, 96 hours treatment, 0.001-1000 nM
Procedure: The compounds according to the present invention were evaluated for their anti-tumor activities on pancreatic ductal adenocarcinoma (Panc-1). To this end, 0.5×10^6 human malignant cells were treated with various concentrations (0.001-1000 nM) for 96 hours of FK866 or the compounds according to the present invention. Subsequently cell viability was determined using either sulforhodamine assays as described in Caffa I, et al. (Oncotarget. 2015 May 20; 6(14):11820-32) or MTT assays. Sulforhodamine B is a dye able that binds to cellular proteins. […] For MTT assays, human malignant cells were plated in triplicate on 96-well plates and treated as mentioned above. After 96 hours of incubation, 15 μL of dye solution was added to each well and cells were incubated for an additional 4 hours. Stop solution (100 μL/well) was added for 1 hour and the absorbance was read at 570 nm on a spectrophotometer. To confirm whether the cytotoxicity exerted by these compounds involves programmed cell death, drug-induced cell death was evaluated using annexin V and 7AAD double staining as described by the manufacturer for assessing apoptosis or autophagic-cell death using a Beckman Coulter Cytomics Gallios flow cytometer. Dead cells were identified as annexinV+ and/or 7AAD+. GraphPad Prism version 7.00 (GraphPad Software, San Diego, Calif.) was used for IC50 calculation.

Row | Structure (SMILES) | CL [1] | Percentage of extrapolated AUC from T6 h to infinity ([1]; plasma) | T1/2α ([1]; plasma) | T1/2β ([1]; plasma) | Cmax ([1]; plasma) | Tmax ([1]; plasma) | AUC(0-inf) ([1]; plasma) | AUC(0-t) ([1]; plasma) | pIC50 [2] | half-lives in the second phase (6 h→24 h) compared with FK866 ([1]; plasma, versus FK866)
1 | O=C(/C=C/c1cccnc1)NCCCCC1CCN(C(=O)c2ccccc2)CC1 [FK866, (E)-N-[4-(1-benzoylpiperidin-4-yl)butyl]-3-(pyridin-3-yl)acrylamide, reference compound] | 9.6 mL/h | 1.2% | 27.6 min | 229 min | 28100 ng/mL | 10 min | 20800 ng·h/mL | 20700 ng·h/mL | 7.74 | –
2 | O=C(/C=C/c1cccnc1F)NCCCCC1CCN(C(=O)c2cccs2)CC1 [MPM-07] | 38.5 mL/h | 2.0% | 21.6 min | 1535 min | 13200 ng/mL | 10 min | 5200 ng·h/mL | 5110 ng·h/mL | 8.82 | improved and longer half-lives
